Results on eight compounds are retold here after patent US20240376094A2, “SELECTIVE BCL-XL PROTAC COMPOUNDS AND METHODS OF USE” (Les Laboratoires Servier, priority 2021, published 2024).

Common to all, as to assay type: cell-based
In one assay the test system is MOLT-4 cells. The experiment in a line: MOLT-4 cell viability, CTG assay. Conditions: Homo sapiens, MOLT-4, 48 h. The procedure, abridged:
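Cells grown in RPMI 1640 with 10% FBS at 37° C, 5% CO2, then exposed to compounds for 48 h (11-point 5-fold dilution, triplicates). ATP measured by CellTiter-Glo luminescence; IC50 from four-parameter fit versus control, mean of ≥2 independent experiments.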

The target of the next assay is T1, HiBiT-tagged BCL-xL (Homo sapiens, UniProt Q07817).
T1 construct: expressed in transfected cells; host or cells: NCI-H1650 (ATCC No. CRL-5883), engineered HiBiT cell line
T1 sequence (Q07817 whole entry): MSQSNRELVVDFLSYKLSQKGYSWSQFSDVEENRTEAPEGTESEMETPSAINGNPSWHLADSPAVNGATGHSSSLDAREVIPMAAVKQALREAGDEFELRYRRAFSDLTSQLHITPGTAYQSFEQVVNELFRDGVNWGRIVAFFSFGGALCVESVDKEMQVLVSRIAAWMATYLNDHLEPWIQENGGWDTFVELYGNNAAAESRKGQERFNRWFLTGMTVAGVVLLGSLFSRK
The assay is described as follows: NCI-H1650 BCL-xL protein levels, Nano-Glo HiBiT Lytic Detection. The settings on record: NCI-H1650 expressing HiBiT-tagged BCL-xL, overnight incubation, read-out: Bcl-xl HIBIT NCIH1650 DC50. In outline: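 NCI-H1650 cells expressing HiBiT-tagged BCL-xL (5000/well) were treated overnight at 37° C with 10 concentrations, final 0.508 nM-10 μM, in triplicate. Remaining BCL-xL measured by Nano-Glo HiBiT lytic luminescence, normalized to untreated cells; 50% values by four-parameter logistic fit.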
On the technique in general: The HiBiT peptide binds its large partner to form an active luciferase.

In another assay the target is T2, Bcl-xL (Homo sapiens, UniProt Q07817).
T2 construct: Measured levels of Bcl-xL protein of HCT116 cells treated with the tested compounds; host or cells: HCT116
T2 sequence (Q07817 whole entry): as above
The assay is described as follows: HCT116 Bcl-xL degradation, capillary-based immunoassay (WES). The settings on record: HCT116, 24 h, 9-point serial dilution. The procedure, abridged: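 HCT116 cells treated 24 h with compound at 10/100 nM and/or 9-point dilution (quadruplicates), then lysed. Bcl-xL measured by capillary WES immunoassay, normalized to cofilin and expressed as % of untreated cells. DC50 from four-parameter curve fit.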

Assay [1] deals with EBC-1 lung cancer cell line. The experiment in a line: EBC-1 cell proliferation, CellTiter-Glo assay. Conditions: Homo sapiens, 120 h; Ebc-1 cell viability, CTG assay, 5 days of treatment; read-out: CTG 5 day Ebc1 GI50. The procedure, abridged: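 EBC-1 cells seeded at 1000 per well overnight, then exposed to 10-point dilutions (0.508 nM–10 μM final) for 5 days at 37 °C, in triplicate. ATP luminescence by CellTiter-Glo, normalised to untreated wells; GI50 from four-parameter logistic fit, runs valid only with at least one doubling.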
On the technique in general: ATP-based viability assays read luminescence as a measure of living cells.

In turn, `Cc1ncsc1-c1ccc([C@H](C)NC(=O)[C@@H]2C[C@@H](O)CN2C(=O)[C@@H](NC(=O)CCCCCCCCCCCCCCCCN(C)CCOC23CC4(C)CC(C)(CC(Cn5ncc(-c6ccc(N7CCCc8c7nnc(Nc7nc9ccccc9s7)c8C)nc6C(=O)O)c5C)(C4)C2)C3)C(C)(C)C)cc1` [Example 145, 6-[3-(1,3-benzothiazol-2-ylamino)-4-methyl-6,7-dihydro-5H-pyrido[2,3-c]pyridazin-8-yl]-3-[1-[[3-[2-[[17-[[(1S)-1-[(2S,4R)-4-hydroxy-2-[[(1S)-1-[4-(4-methylthiazol-5-yl)phenyl]ethyl]carbamoyl]pyrrolidine-1-carbonyl]-2,2-dimethyl-propyl]amino]-17-oxo-heptadecyl]-methyl-amino]ethoxy]-5,7-dimethyl-1-adamantyl]methyl]-5-methyl-pyrazol-4-yl]pyridine-2-carboxylic acid] gave a half-inhibitory concentration (IC50) in the assay on MOLT-4 cells of 2.41 nM. Also, the DC50 on HiBiT-tagged BCL-xL worked out at 2 nM; at Bcl-xL, 2.17 nM. In assay [1], the GI50 was 1 nM.
The corresponding values for `Cc1ncsc1-c1ccc(CNC(=O)[C@@H]2C[C@@H](O)CN2C(=O)[C@@H](NC(=O)C2(F)CC2)C(C)(C)C)c(OCCCCCCCCCCCN(C)CCOC23CC4(C)CC(C)(CC(Cn5ncc(-c6ccc(N7CCCc8c7nnc(Nc7nc9ccccc9s7)c8C)nc6C(=O)O)c5C)(C4)C2)C3)c1` [Example 76, 6-[3-(1,3-benzothiazol-2-ylamino)-4-methyl-6,7-dihydro-5H-pyrido[2,3-c]pyridazin-8-yl]-3-[1-[[3-[2-[11-[2-[[[(2S,4R)-1-[(2S)-2-[(1-fluorocyclopropanecarbonyl)amino]-3,3-dimethyl-butanoyl]-4-hydroxy-pyrrolidine-2-carbonyl]amino]methyl]-5-(4-methylthiazol-5-yl)phenoxy]undecyl-methyl-amino]ethoxy]-5,7-dimethyl-1-adamantyl]methyl]-5-methyl-pyrazol-4-yl]pyridine-2-carboxylic acid] are 8.34 nM, 3 nM, 0.28 nM and 134 nM.
The corresponding values for `Cc1ncsc1-c1ccc(CNC(=O)[C@@H]2C[C@@H](O)CN2C(=O)[C@@H](NC(=O)C2(F)CC2)C(C)(C)SCCCCCCCCCCCCCN(C)CCOC23CC4(C)CC(C)(CC(Cn5ncc(-c6ccc(N7CCCc8c7nnc(Nc7nc9ccccc9s7)c8C)nc6C(=O)O)c5C)(C4)C2)C3)cc1` [Example 118, 6-[3-(1,3-benzothiazol-2-ylamino)-4-methyl-6,7-dihydro-5H-pyrido[2,3-c]pyridazin-8-yl]-3-[1-[[3-[2-[13-[(2R)-2-[(1-fluorocyclopropanecarbonyl)amino]-3-[(2S,4R)-4-hydroxy-2-[[4-(4-methylthiazol-5-yl)phenyl]methylcarbamoyl]pyrrolidin-1-yl]-1,1-dimethyl-3-oxo-propyl]sulfanyltridecyl-methyl-amino]ethoxy]-5,7-dimethyl-1-adamantyl]methyl]-5-methyl-pyrazol-4-yl]pyridine-2-carboxylic acid] are 7.83 nM, more than 1670 nM, more than 316 nM and 84 nM.
`Cc1ncsc1-c1ccc([C@H](C)NC(=O)[C@@H]2C[C@@H](O)CN2C(=O)[C@@H](NC(=O)CCCCCCCNC(=O)c2nc(N3CCCc4c3nnc(Nc3nc5ccccc5s3)c4C)ccc2-c2cnn(CC34CC5(C)CC(C)(C3)CC(OCCN3CCCC3)(C5)C4)c2C)C(C)(C)C)cc1` [Example 129, 6-[3-(1,3-benzothiazol-2-ylamino)-4-methyl-6,7-dihydro-5H-pyrido[2,3-c]pyridazin-8-yl]-3-[1-[[3,5-dimethyl-7-(2-pyrrolidin-1-ylethoxy)-1-adamantyl]methyl]-5-methyl-pyrazol-4-yl]-N-[8-[[(1S)-1-[(2S,4R)-4-hydroxy-2-[[(1S)-1-[4-(4-methylthiazol-5-yl)phenyl]ethyl]carbamoyl]pyrrolidine-1-carbonyl]-2,2-dimethyl-propyl]amino]-8-oxo-octyl]pyridine-2-carboxamide] came in with a half-maximal inhibitory concentration (IC50) in the assay with MOLT-4 cells of 5.3 nM. In addition, the DC50 was 1 nM on HiBiT-tagged BCL-xL and 7.34 nM at Bcl-xL. Besides, the GI50 in assay [1] is 3 nM.
In the same order, the values of `Cc1ncsc1-c1ccc([C@H](C)NC(=O)[C@@H]2C[C@@H](O)CN2C(=O)[C@@H](NC(=O)CCCCNC(=O)c2nc(N3CCCc4c3nnc(Nc3nc5ccccc5s3)c4C)ccc2-c2cnn(CC34CC5(C)CC(C)(C3)CC(OCCN3CCCC3)(C5)C4)c2C)C(C)(C)C)cc1` [Example 122, 6-[3-(1,3-benzothiazol-2-ylamino)-4-methyl-6,7-dihydro-5H-pyrido[2,3-c]pyridazin-8-yl]-3-[1-[[3,5-dimethyl-7-(2-pyrrolidin-1-ylethoxy)-1-adamantyl]methyl]-5-methyl-pyrazol-4-yl]-N-[5-[[(1S)-1-[(2S,4R)-4-hydroxy-2-[[(1S)-1-[4-(4-methylthiazol-5-yl)phenyl]ethyl]carbamoyl]pyrrolidine-1-carbonyl]-2,2-dimethyl-propyl]amino]-5-oxo-pentyl]pyridine-2-carboxamide] are 4.6 nM, more than 1670 nM, more than 316 nM and 46 nM.
The corresponding values for `Cc1cc(N(CCCCN(C)C(=O)CCCCCCCCCCC(=O)N[C@H](C(=O)N2C[C@H](O)C[C@H]2C(=O)N[C@@H](C)c2ccc(-c3scnc3C)cc2)C(C)(C)C)c2ccc(-c3cnn(CC45CC6(C)CC(C)(C4)CC(OCCN(C)C)(C6)C5)c3C)c(C(=O)O)n2)nnc1Nc1nc2ccccc2s1` [Example 112, 6-[[6-(1,3-benzothiazol-2-ylamino)-5-methyl-pyridazin-3-yl]-[4-[[12-[[(1S)-1-[(2S,4R)-4-hydroxy-2-[[(1S)-1-[4-(4-methylthiazol-5-yl)phenyl]ethyl]carbamoyl]pyrrolidine-1-carbonyl]-2,2-dimethyl-propyl]amino]-12-oxo-dodecanoyl]-methyl-amino]butyl]amino]-3-[1-[[3-[2-(dimethylamino)ethoxy]-5,7-dimethyl-1-adamantyl]methyl]-5-methyl-pyrazol-4-yl]pyridine-2-carboxylic acid] are 15.7 nM, 0.5 nM, 0.495 nM and 437 nM.
The compound `Cc1ncsc1-c1ccc([C@H](C)NC(=O)[C@@H]2C[C@@H](O)CN2C(=O)[C@@H](NC(=O)C2CCN(C(=O)CCCCCCCN(C)CCOC34CC5(C)CC(C)(CC(Cn6ncc(-c7ccc(N8CCCc9c8nnc(Nc8nc%10ccccc%10s8)c9C)nc7C(=O)O)c6C)(C5)C3)C4)CC2)C(C)(C)C)cc1` [Example 81, 6-[3-(1,3-benzothiazol-2-ylamino)-4-methyl-6,7-dihydro-5H-pyrido[2,3-c]pyridazin-8-yl]-3-[1-[[3-[2-[[8-[4-[[(1S)-1-[(2S,4R)-4-hydroxy-2-[[(1S)-1-[4-(4-methylthiazol-5-yl)phenyl]ethyl]carbamoyl]pyrrolidine-1-carbonyl]-2,2-dimethyl-propyl]carbamoyl]-1-piperidyl]-8-oxo-octyl]-methyl-amino]ethoxy]-5,7-dimethyl-1-adamantyl]methyl]-5-methyl-pyrazol-4-yl]pyridine-2-carboxylic acid] showed an IC50 in the assay on MOLT-4 cells of 15.1 nM. The DC50 is more than 1670 nM at HiBiT-tagged BCL-xL and more than 316 nM on Bcl-xL. For the same compound, the GI50 in assay [1] was 203 nM.
The corresponding values for `Cc1ncsc1-c1ccc([C@H](C)NC(=O)C2C[C@@H](O)CN2C(=O)C(NC(=O)COCCOCCOCCOCCN(C)CCOC23CC4(C)CC(C)(CC(Cn5ncc(-c6ccc(N7CCCc8c7nnc(Nc7nc9ccccc9s7)c8C)nc6C(=O)O)c5C)(C4)C2)C3)C(C)(C)C)cc1` (stereo in doubt) [Example 87, 6-[3-(1,3-benzothiazol-2-ylamino)-4-methyl-6,7-dihydro-5H-pyrido[2,3-c]pyridazin-8-yl]-3-[1-[[3-[2-[2-[2-[2-[2-[2-[[(1S)-1-[(2S,4R)-4-hydroxy-2-[[(1S)-1-[4-(4-methylthiazol-5-yl)phenyl]ethyl]carbamoyl]pyrrolidine-1-carbonyl]-2,2-dimethyl-propyl]amino]-2-oxo-ethoxy]ethoxy]ethoxy]ethoxy]ethyl-methyl-amino]ethoxy]-5,7-dimethyl-1-adamantyl]methyl]-5-methyl-pyrazol-4-yl]pyridine-2-carboxylic acid] are 34.7 nM, more than 1670 nM, more than 316 nM and 216 nM.

Usually IC50 stands for the concentration needed to halve the response being measured. In general, GI50 refers to the concentration at which growth is held to half of that of the control.
